Experiment [1] addresses T1, Replicative DNA helicase DnaB (Mycobacterium tuberculosis, UniProt P9WMR3).
T1 sequence (P9WMR3 whole entry): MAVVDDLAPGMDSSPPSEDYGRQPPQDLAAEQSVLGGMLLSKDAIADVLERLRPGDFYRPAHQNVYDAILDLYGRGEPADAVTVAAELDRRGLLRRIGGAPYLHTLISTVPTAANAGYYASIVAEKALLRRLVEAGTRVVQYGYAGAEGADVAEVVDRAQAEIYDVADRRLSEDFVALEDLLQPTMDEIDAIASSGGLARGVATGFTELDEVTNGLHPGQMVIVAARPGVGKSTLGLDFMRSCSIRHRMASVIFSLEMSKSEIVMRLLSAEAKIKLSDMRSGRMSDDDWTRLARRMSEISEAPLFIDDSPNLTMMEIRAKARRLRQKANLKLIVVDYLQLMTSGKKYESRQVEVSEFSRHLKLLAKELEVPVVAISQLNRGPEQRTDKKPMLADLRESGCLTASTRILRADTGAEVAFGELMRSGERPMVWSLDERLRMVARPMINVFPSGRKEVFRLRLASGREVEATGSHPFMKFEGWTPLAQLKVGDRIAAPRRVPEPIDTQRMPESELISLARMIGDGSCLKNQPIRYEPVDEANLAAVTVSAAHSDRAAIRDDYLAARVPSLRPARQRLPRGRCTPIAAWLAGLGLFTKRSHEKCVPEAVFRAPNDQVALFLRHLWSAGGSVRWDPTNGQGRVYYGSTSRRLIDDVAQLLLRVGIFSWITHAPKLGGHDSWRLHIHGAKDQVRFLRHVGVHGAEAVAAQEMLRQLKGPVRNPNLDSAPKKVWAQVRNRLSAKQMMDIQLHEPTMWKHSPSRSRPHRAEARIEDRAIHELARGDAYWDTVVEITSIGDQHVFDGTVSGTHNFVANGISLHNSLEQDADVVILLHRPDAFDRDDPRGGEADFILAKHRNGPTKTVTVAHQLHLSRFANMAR
The experiment in a line: DnaB intein splicing inhibitors, dose response, biochemical, cell-free fluorescence (AID 449749). In kind it is functional.

Experiment [2] has as its target T2, Protein RecA (Mycobacterium tuberculosis, UniProt P9WHJ3).
T2 sequence (P9WHJ3 whole entry): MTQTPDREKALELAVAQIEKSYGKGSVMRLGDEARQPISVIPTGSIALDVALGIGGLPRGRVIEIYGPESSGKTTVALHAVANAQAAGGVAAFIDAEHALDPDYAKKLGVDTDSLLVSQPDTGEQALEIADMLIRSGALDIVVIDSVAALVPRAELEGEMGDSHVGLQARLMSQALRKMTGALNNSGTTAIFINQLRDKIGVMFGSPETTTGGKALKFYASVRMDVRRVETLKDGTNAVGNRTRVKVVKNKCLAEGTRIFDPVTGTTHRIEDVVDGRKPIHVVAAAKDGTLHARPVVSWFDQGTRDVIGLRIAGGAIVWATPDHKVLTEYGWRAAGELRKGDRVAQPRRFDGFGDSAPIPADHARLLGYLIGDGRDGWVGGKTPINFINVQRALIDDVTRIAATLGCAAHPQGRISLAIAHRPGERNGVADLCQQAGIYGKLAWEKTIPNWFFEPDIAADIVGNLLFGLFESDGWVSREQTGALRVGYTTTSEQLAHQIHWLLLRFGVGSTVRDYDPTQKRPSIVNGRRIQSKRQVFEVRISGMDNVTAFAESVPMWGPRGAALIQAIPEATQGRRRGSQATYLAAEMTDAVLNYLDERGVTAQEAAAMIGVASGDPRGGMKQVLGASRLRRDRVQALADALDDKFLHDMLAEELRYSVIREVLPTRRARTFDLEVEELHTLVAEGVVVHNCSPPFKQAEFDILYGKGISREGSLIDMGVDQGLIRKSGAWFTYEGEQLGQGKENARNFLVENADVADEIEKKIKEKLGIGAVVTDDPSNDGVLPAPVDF
The experiment in a line: Fluorescence Cell-Free Homogeneous Dose Retest to Identify Inhibitors of RecA-Intein Splicing Activity. [Related pubchem assays (depositor defined):AID2097, AID2223, AID489010, AID492950]. The class given is functional.

The subject of experiment [3] is Streptococcus sp. 'group A'. The experiment in a line: Streptococcus pyogenes SK(-)GAS viability under kanamycin – luminescence, BacTiterGlo, confirmation, counter-screen for streptokinase expression inhibitor project, dose response (AID 1900). The class given is functional, organism-based. On the technique in general: The purpose of a counterscreen is to sort out artefacts and off-target activity.

The target in experiment [4] is T3, Streptokinase A (Streptococcus pyogenes serotype M1, UniProt P10520).
T3 sequence (P10520 whole entry): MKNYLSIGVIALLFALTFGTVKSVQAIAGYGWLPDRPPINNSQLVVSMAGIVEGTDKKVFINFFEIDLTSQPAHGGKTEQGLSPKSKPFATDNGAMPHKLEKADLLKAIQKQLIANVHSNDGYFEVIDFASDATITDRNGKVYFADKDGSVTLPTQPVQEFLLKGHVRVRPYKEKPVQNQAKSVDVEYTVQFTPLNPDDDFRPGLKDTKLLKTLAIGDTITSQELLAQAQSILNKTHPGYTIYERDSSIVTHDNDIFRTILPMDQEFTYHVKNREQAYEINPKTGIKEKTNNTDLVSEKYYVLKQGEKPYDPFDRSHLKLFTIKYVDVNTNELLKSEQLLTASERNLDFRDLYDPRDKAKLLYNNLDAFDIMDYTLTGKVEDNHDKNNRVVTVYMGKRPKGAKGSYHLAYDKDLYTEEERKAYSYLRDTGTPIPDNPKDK
The experiment in a line: viability-normalized secreted streptokinase activity reduction – plasminogen activation absorbance, OD405, dose response (AID 1914).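 Also: secreted streptokinase activity via plasminogen activation per viability signal from cell pellet.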 The class given is functional, Streptococcus pyogenes M1 GAS.

Experiment [5] concerns Streptococcus. The experiment in a line: GAS UMAA2166 growth inhibition – luminescence, BacTiterGlo, counter-screen for streptokinase expression inhibitor project, dose response (AID 1915).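 Also: potency for reduction of bacterial viability or growth.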 In kind it is functional, organism-based.
Experiment [6] deals with Cytochrome P450 2D6 (Homo sapiens, UniProt P10635).
Chain of Cytochrome P450 2D6 (P10635 whole entry): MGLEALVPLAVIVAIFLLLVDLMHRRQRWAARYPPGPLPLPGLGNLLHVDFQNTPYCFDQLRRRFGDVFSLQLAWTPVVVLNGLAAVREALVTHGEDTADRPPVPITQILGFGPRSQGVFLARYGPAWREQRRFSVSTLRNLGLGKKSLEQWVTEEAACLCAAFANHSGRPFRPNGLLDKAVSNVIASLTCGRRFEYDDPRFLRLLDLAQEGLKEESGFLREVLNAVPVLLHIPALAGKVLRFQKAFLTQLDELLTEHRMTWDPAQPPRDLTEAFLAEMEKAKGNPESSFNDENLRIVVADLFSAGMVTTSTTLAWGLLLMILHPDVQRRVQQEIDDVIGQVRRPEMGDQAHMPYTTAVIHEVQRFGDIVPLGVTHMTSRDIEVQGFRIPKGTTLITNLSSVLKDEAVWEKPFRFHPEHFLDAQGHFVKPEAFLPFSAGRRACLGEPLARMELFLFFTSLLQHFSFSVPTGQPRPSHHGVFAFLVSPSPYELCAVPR
Experiment [7] deals with Cytochrome P450 3A4 (Homo sapiens, UniProt P08684).
Chain of Cytochrome P450 3A4 (P08684 whole entry): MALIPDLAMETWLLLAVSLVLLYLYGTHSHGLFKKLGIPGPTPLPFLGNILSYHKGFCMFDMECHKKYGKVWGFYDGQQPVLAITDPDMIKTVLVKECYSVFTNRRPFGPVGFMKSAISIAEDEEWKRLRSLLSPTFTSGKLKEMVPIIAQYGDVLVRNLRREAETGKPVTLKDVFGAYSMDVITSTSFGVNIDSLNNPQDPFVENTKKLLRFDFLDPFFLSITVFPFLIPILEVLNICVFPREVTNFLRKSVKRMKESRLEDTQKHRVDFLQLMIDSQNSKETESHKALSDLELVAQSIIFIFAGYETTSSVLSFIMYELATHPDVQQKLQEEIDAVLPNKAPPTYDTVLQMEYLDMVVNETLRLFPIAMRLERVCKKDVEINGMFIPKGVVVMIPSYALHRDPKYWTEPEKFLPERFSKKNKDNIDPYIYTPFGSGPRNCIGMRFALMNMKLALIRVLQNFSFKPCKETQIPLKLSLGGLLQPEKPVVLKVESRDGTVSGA
The test system of experiment [8] is H4. The experiment in a line: Luminescence Cell-Based Dose Response HTS to Identify Activators of 5'UTR Stem-Loop Driven Prion Protein mRNA Translation in H4 Neuroglioblastoma Cells. [Related pubchem assays: 1829 (Project Summary), 1814 (Primary HTS)]. In kind it is functional. Particulars: Homo sapiens.
A short description of experiment [9]: Luminescence Cell-Based Dose Response HTS to Identify Activators of Luciferase Translation or Activity in H4 […] Cells. [Related pubchem assays: 1829 (Project Summary), 1814 (Primary HTS)]. The class given is functional.
A short description of experiment [10]: Luminescence Cell-Based Dose Confirmation HTS to Identify Activators of 5'UTR Stem-Loop Driven Alpha-Synuclein mRNA Translation in H4 Neuroglioblastoma Cells. [Related pubchem assays: 1829 (Project Summary), 1814 (Primary HTS)]. In kind it is functional.
In experiment [11] the target is T4, Heat shock factor protein 1 (Mus musculus, UniProt P38532).
T4 sequence (P38532 whole entry): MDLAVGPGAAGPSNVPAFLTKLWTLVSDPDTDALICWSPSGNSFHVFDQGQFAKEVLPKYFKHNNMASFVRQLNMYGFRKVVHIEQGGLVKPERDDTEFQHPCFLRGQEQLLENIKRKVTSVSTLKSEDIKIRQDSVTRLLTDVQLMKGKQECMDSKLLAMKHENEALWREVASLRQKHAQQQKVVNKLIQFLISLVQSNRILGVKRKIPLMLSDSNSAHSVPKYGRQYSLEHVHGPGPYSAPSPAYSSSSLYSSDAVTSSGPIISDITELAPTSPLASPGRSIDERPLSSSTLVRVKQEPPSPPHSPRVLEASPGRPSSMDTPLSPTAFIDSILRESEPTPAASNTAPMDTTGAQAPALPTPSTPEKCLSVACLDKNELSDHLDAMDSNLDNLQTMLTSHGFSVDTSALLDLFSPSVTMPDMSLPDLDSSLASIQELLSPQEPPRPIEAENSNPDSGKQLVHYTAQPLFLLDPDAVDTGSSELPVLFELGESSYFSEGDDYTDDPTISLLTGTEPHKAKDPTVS
The experiment in a line: decrease of HSF1-responsive luciferase luminescence – cell-based, NIH3T3, dose retest, confirmation (AID 2382).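 Also: NIH3T3 fibroblasts with HSF1-driven luciferase reporter stressed by proteasome inhibitor MG132; luminescence from HSF1-driven luciferase expression after 8 hours of MG132 stress.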 In kind it is functional.

A short description of experiment [12]: cells. The class given is functional.

Structures are written as SMILES. Activity calls are given as the source filed them. Rule as the data show it, for most assays here: actives have a measured EC50 and inactives only a lower limit.

As usually defined, the AC50 is the midpoint of the concentration-response curve, whichever way the signal moves. As a reminder, the EC50 is the concentration that produces a half-maximal response. One may read the IC50 as the concentration at which inhibition is half-maximal.

Turning to `Cc1nc2ccccc2c2c1C(=O)N(C(C)C)C2=O`, in [1], the AC50 was 192 µM (active). Also, in experiment [2], the EC50 was 0.851 µM (active).
In the same order, the values of `O=C(c1ccccc1)c1c[nH]c(C(=O)C(Cl)(Cl)Cl)c1` are 21.7 µM (active) and 8.23 µM (active).
In the same order, the values of `Cc1nn(Cc2ccccc2)c2c1C(c1ccco1)C(C#N)=C(N)O2` (stereo not given) are > 380 µM (inactive) and 3.15 µM (active).
On to `Cc1nn(C(=O)c2cccnc2)c(C)c1Sc1ccc(Br)cc1`, for which the EC50 in experiment [3] was 11.1 µM (active); in experiment [4] it was > 150 µM (not active); in experiment [5] it was > 150 µM (not active); in experiment [2], 18.7 µM (active). Also, the figures for the AC50 in experiment [1], in experiment [6] and in [7] were 4.61 µM (active), 25.1 µM (inconclusive) and 15.8 µM (inconclusive), respectively.
On to `O=C(c1ccc(F)cc1)c1ccc(-c2ccc(F)cc2)nc1`, for which the 50% effective concentration (EC50) in experiment [8] was 11.6 µM (active); in experiment [9], 11.9 µM (active); in experiment [10], 4.41 µM (active).
With `O=C1NC2=C(CCc3ccccc32)C(c2ccccc2)N1` (stereo not given), the AC50 in [1] was 2.19 µM (active). For the same compound, the EC50 in [2] is 1.67 µM (active).
With `O=C(Nc1cc(Cl)ccc1-n1cncn1)c1ccc([N+](=O)[O-])o1`, the EC50 is 11.7 µM (active) in experiment [3]; 56.7 µM (inconclusive) in experiment [4]; > 120 µM (not active) in [8]; > 120 µM (not active) in [9]; > 150 µM (not active) in [5]; > 120 µM (not active) in experiment [10].
As for `CC(C)(C)C(=O)Nc1ccc(N=Nc2ccccc2)cc1`, the values for the half-maximal effective concentration (EC50) in experiment [11] and in experiment [2] were < 0.16 µM (active) and 2.85 µM (active), respectively. The AC50 in experiment [1] is 4.35 µM (active).
As for `O=C(NNC(=O)c1ccccc1F)c1ccc(-c2ccc(Cl)cc2)o1`, the IC50 in experiment [12] is 8.21 µM (active).
For `O=C(NC(NC(=S)Nc1ccc(Cl)cc1Cl)C(Cl)(Cl)Cl)c1cccc([N+](=O)[O-])c1` (stereo not given), the concentration at half-maximal activity (AC50) in experiment [1] is 2.33 µM (active). Moreover, the EC50 in experiment [2] is 3.3 µM (active).
Take `O=C(c1ccccc1)[C@H]1[C@H](c2ccccc2)[C@@]2(N=C(c3ccccc3)OC2=O)C2c3ccccc3C=NN21` (stereo not given in full): the figures for the EC50 in experiment [8], in experiment [9] and in [10] were > 120 µM (not active), 19 µM (active) and 6.71 µM (active), respectively.
In the same order, the values of `CC(C)N(Cc1nccn1C)C(=O)CCc1nnc(CCCc2ccccc2)o1` are 31.2 µM (active), 15.5 µM (active) and 12.7 µM (active).
Take `CCc1ccc(N2CCN(CCNC(=O)Nc3ccc(OC)cc3)CC2)cc1`: the 50% inhibitory concentration (IC50) in experiment [12] was 38.2 µM (active).
Take `Cc1ccc(NC(=O)c2ocnc2C)cc1Cl`: the EC50 was 6.44 µM (active) in experiment [8], 1.04 µM (active) in experiment [9] and 0.145 µM (active) in experiment [10].
In the same order, the values of `O=[N+]([O-])c1ccc(/C=C2\CCC(C3=CCCC3)=C2N2CCOCC2)cc1` are > 120 µM (not active), > 120 µM (not active) and > 120 µM (not active).
In the same order, the values of `CC(C)NC(=O)c1[nH]nc2c1CCc1ccccc1-2` are 8.82 µM (active), 56 µM (active) and 5.26 µM (active).
In the same order, the values of `CSc1ccc(/C=C(/NC(=O)c2ccccc2)C(=O)N2CCN(C)CC2)cc1` are > 60 µM (not active), > 120 µM (not active) and > 120 µM (not active).
Consider `S=C(Nc1ccc(Br)cc1Cl)N1CCC2(CC1)OCCO2`, for which the values for the 50% effective concentration (EC50) in experiment [8], in experiment [9] and in experiment [10] were 16 µM (active), 23.5 µM (active) and > 120 µM (not active), respectively.
`Cc1nn(-c2ccccc2)c2c1C1(C(=O)N3c4c(cccc41)C(C)CC3(C)C)C(C#N)=C(N)O2` (stereo not given): the half-maximal activity concentration (AC50) in experiment [1] is 4.61 µM (active). In addition, the half-maximal effective concentration (EC50) in experiment [2] is 3.2 µM (active).
Turning to `CCCn1c(N)c(Sc2ccc(C)cc2)c(=O)n(CCC)c1=O`, the half-maximal effective concentration (EC50) in experiment [8], in experiment [9] and in experiment [10] was > 120 µM (not active) in each case.
On to `O=C(CSc1nnc(-c2ccccc2Cl)o1)Oc1ccc(Br)cc1`, for which the AC50 in [1] was 1.42 µM (active). Also, the EC50 in experiment [2] was 3 µM (active).
On to `C(=N\Nc1nc(-c2ccccc2)cs1)/c1cccnc1`, for which the EC50 in experiment [8] was 44.1 µM (active); in experiment [9] it was 33.3 µM (active); in experiment [10], 0.198 µM (active).
Take `COc1cc(/C=N/n2c(C)nnc2S)ccc1OCc1ccc(F)cc1`: the 50% effective concentration (EC50) in experiment [8] is 32 µM (active); in experiment [9], > 120 µM (not active); in experiment [10], > 120 µM (not active).

Values taken from ChEMBL document CHEMBL1201862, “PubChem BioAssay data set” (2004).
